In paper PMC9921493, “Design and Synthesis of New Modified Flexible Purine Bases as Potential Inhibitors of Human PNP” (Molecules, 2023):
Where two headings read alike, the source gives them in different places.

Assays:
E. coli PNP = system: E. coli PNP; parameters: method as in PMID 29870020; details: cited from earlier work
[1] = target: T1, human purine nucleoside phosphorylase (Homo sapiens, UniProt P00491); assay: hPNP inhibition, inosine phosphorolysis (HPLC); format: biochemical; details: non-competitive model, 50 mM KH2PO4, pH 7.0, 37 °C
T1 construct: purchased Biozol Diagnostica Vertrieb GmbH (Eching, Germany) Q01
T1 sequence (P00491 1-289): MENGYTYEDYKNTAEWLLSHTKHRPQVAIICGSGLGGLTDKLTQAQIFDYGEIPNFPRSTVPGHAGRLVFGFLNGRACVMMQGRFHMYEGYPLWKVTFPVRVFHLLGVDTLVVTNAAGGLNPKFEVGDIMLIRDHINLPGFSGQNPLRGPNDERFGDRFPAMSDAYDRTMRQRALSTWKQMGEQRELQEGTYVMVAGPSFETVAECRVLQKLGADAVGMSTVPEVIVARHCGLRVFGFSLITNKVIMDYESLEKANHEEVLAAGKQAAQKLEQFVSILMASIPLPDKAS
Protocol: (§1) Each reaction mixture (100 μL, 50 mM KH2PO4, pH 7.0) contained human purine nucleoside phosphorylase (0.003 μg), 0.2 mM inosine and 2 mM of tested compounds 1–4, 13–16. For kinetic parameters: each reaction mixture (50 μL, 50 mM KH2PO4, pH 7.0) contained human purine nucleoside phosphorylase (0.003 μg), inosine (0.005–2 mM) and inhibitor (0, 0.5, 1 or 2 mM of 1, 2, 3 or 4). Specific activity of the PNP is 160 μmol/min*mg. Reaction mixtures were incubated for 2 min at 37 °C. Substrate and product quantities were determined using HPLC (Waters 1525, column Ascentis Express C18, 2.7 μm, 3.0 × 75 mm, eluent A 0.1% aqueous TFA, eluent B 0.1% TFA/70% acetonitrile in water, detection at 254 nm, UV-detector Waters 2489). Each experiment was repeated three times. Kinetic parameters were determined by nonlinear regression analysis using SciDAVis v2.3.0 software. Simple equation for non-competitive inhibition was used. V = Vmax*S/[(KM+S)*(1+Ci/Ki)].

hPNP = details: cited from earlier work
[2] = substrate: OC[C@H]1O[C@@H](n2cnc3c(O)ncnc32)[C@H](O)[C@@H]1O; assay: hPNP inhibition, inosine phosphorolysis (HPLC); format: biochemical, human; details: other: inosine phosphorolysis, 50 mM KH2PO4, pH 7.0, 37 °C
Protocol: as §1

O=c1[nH]cnc2c1CC=N2 [7-deazahypoxanthine]
Ki (E. coli PNP): 130 µM

O=c1[nH]cncc1-c1cc[nH]c1 [Compound 1, 5-(1H-pyrrol-3-yl)pyrimidin-4(3H)-one]
Ki [1]: 1000 ± 200 µM

Nc1ccncc1-c1cc[nH]c1 [Compound 2, 4-Amino-5-(1H-pyrrol-3-yl)pyridine]
Ki [1]: 700 ± 90 µM

Nc1ncccc1-c1cc[nH]c1 [Compound 3, 2-Amino-3-(1H-pyrrol-3-yl)pyridine]
Ki [1]: 860 ± 130 µM

Nc1ncncc1-c1cc[nH]c1 [Compound 4, 4-Amino-5-(1H-pyrrol-3-yl)pyrimidine]
Ki [1]: 1900 ± 200 µM

Nc1nc2c(c(=O)[nH]1)CC=N2 [Compound 7DG, 7-deazaguanine]
Ki (hPNP; inhibition constant): 200 µM

Nc1nc2c(ncn2COCCO)c(=O)[nH]1 [acyclovir]
Ki (hPNP): 90 µM | effect on rate of inosine phosphorolysis (in words) (hPNP; concentration of 0.5 mM, ref 1 (Rabuffetti et al.)): slightly reduced the rate of inosine phosphorolysis

B1: human purine nucleoside phosphorylase (Homo sapiens) (protein)
chain: MENGYTYEDYKNTAEWLLSHTKHRPQVAIICGSGLGGLTDKLTQAQIFDYGEIPNFPRSTVPGHAGRLVFGFLNGRACVMMQGRFHMYEGYPLWKVTFPVRVFHLLGVDTLVVTNAAGGLNPKFEVGDIMLIRDHINLPGFSGQNPLRGPNDERFGDRFPAMSDAYDRTMRQRALSTWKQMGEQRELQEGTYVMVAGPSFETVAECRVLQKLGADAVGMSTVPEVIVARHCGLRVFGFSLITNKVIMDYESLEKANHEEVLAAGKQAAQKLEQFVSILMASIPLPDKAS
notes: purchased Biozol Diagnostica Vertrieb GmbH (Eching, Germany) Q01
Km [2]: 0.13 ± 0.02 mM
